# Assay results: doi:10.1101/2025.04.25.650653, “Hierarchical small molecule inhibition of MYST acetyltransferases” (bioRxiv, 2025)
# “And” between values parts separate entries of the source, which are not always exact repeats. Equal values may be shown once.
# Key:
# BT-549 cells = assay: NCI-60 cell line screen, sulforhodamine B growth inhibition; format: cell-based, human; details: BT-549, 10 and 100 μM, 48 h
# Excerpt: As a comparator we used growth inhibition caused by treatment of cells with CPI-1612,[45], [46] a potent inhibitor of the EP300/CREBBP (KAT3A/B), widely regarded as the master regulator of protein acetylation.
# Figure 6. […] (C) Dependence of breast cancer cell lines on non-MYST KATs (EP300, CREBBP), MYST KATs (KAT6A, KAT6B, KAT7, KAT8, KAT5), and a MYST KAT complex member (BRPF1) derived from on DepMap CRISPR screening data. BT-549 is highlighted in orange. Lower CERES score indicates a greater dependence of the cell line on the specified gene. […] Data is representiative of n=2 biological replicates.
# (0.01, 0.1, 1, 10, 100 μM) for 48 hours and analyzed by sulforhodamine B assay for growth inhibition as previously described.12-14 o validate the NCI-60 relative activity trends using an orthogonal method, we […]
# 0.94, 0.47, 0.23, 0 μM) for 96 hours. Experiments were performed in quadruplicate, and cell viability was measured using CellTiter-Glo® Luminescent Cell Viability Assay (Promega, G7572) according to the manufacturer's instructions. Luminescence signals were recorded on a BioTek Synergy 2 plate reader, and results were normalized to vehicle-treated controls (set to 100%). Half-maximal inhibition values (IC₅₀) were determined from nonlinear regression analysis of dose-response curves using GraphPad Prism 9. […]
# H3K23Ac (KAT6A/B) = assay: Histone biomarker bottom-up LC-MS/MS, MCF-7; format: cell-based; details: for Ratio, H3_18_26 K23ac: Replicates 1-3
# Excerpt: In this approach. […] Histones are then extracted from cell pellets and chemically derivatized with propionic anhydride, digested with trypsin, subjected to a second round of propionylation, and analyzed by LC-MS/MS. Measuring the relative intensity of modified versus unmodified forms of individual histone peptides enables simultaneous monitoring of multiple potential biomarkers of MYST inhibition. To minimize false positives, we focused on abundant and reproducible modifications (average stoichiometry of greater than 1% across triplicate samples, standard deviation less than or equal to the average measurement). To account for potential histone modification crosstalk, changes in both acetylated and methylated peptides were evaluated. 38 modified peptides passed this reproducible detection threshold including several established KAT biomarkers[41] including H3K9Ac (KAT2A/B), H3K18Ac (KAT3A/B), H3K14Ac (KAT7), H3K23Ac (KAT6A/B), H4K16Ac (KAT8), and H2A.ZK4/K7Ac (KAT5; Fig. 4B).
# Genetic perturbations have unambiguously determined the dependence of H3K23Ac on KAT6A/B.[9], [41] The H3K23Ac biomarker critically complements chemoproteomics by allowing sensitive assessment of KAT6A and KAT6B activity, whose active site occupancy is otherwise difficult to assess. […] This is significant since several studies have used H3K9Ac as a proxy for KAT6A/B inhibition (Table S7),[8], [42] even though its regulation is most commonly attributed to KAT2A/B.[41] Since LC-MS/MS assays require specialized equipment and technical expertise, we also validated a panel of histone acetylation antibodies that recapitulate the dose-dependent inhibition of MYST targets by western blot (Fig. 4E). […]
# nuclei were pelleted by centrifugation (600 rcf, 4°C, 5 min). Pelleted nuclei were washed twice with 150 μL of detergent-free NIB buffer, followed by centrifugation (600 rcf, 4°C, 5 min) to remove all detergent.
# Nuclei were then resuspended in 400 μL of 0.4 N H₂SO₄ and rotated at 4°C overnight for acid extraction of histones. The following day, samples were centrifuged (11,000 rcf, 4°C, 10 min) and the histone-containing supernatant was transferred to a fresh tube. Trichloroacetic acid (100% TCA) was added to achieve a final concentration of 20% (v/v), tubes were inverted once to mix, and histone precipitation was performed on ice for at least 3 hours or overnight at 4°C. Precipitated histones were collected by centrifugation (11,000 rcf, 4°C, 10 min) and the supernatant carefully removed, leaving a visible film of histones on the tube wall or bottom. Histone pellets were subjected to sequential washes with 1 mL of ice-cold acidified acetone (0.1% 12 N HCl) followed by 1 mL of 100% ice-cold acetone, with centrifugation (11,000 rcf, 4°C, 5 min) after each wash. Samples were air-dried at room temperature, resuspended in 40 µL of ddH₂O, and protein […]
# analysis, 1-2 µg of purified histones were loaded per lane and processed according to the general immunoblotting protocol described in General Materials and Methods.
# Analysis of histone modifications by LC-MS/MS
# Preparation of histone samples for LC-MS/MS was performed analogously to the procedure for immunoblotting above, with the following modifications. MCF7 cells (4.2 × 106) were seeded in 15 cm dishes and treated with PF-9363 or vehicle. Experiments were performed in triplicate. Following treatment and PBS washing, cells were scraped and collected in 15 mL falcon tubes, pelleted (500 rcf, 4°C, 5 min), resuspended in 1 mL cold PBS, transferred to microcentrifuge tubes, and pelleted again before flash-freezing in liquid nitrogen for storage at -80°C. For extraction, cell pellets (~100 μL) were resuspended in NIB buffer at a 1:10 ratio, and cells were lysed with NIB buffer containing 0.2% NP-40 for 8 minutes on ice. Nuclei were pelleted at 1,000 rcf for 8 minutes and washed three times with 500 μL detergent-free NIB
# H3K9Ac (KAT2A/B) = assay: Histone biomarker bottom-up LC-MS/MS, MCF-7; format: cell-based; details: for Ratio, H3_9_17 K9ac: Replicates 1-3
# KAT7 = KAT7 (Homo sapiens, UniProt O95251); assay: Competitive chemoproteomic profiling (H3K14-CoA affinity capture, western blot and LC-MS/MS); details: 0.1 μM, HeLa nuclear extracts
# H4K16Ac (KAT8) = assay: MYST KAT biomarker western blot, BT-549; format: cell-based; details: BT-549 cells, 24 h, near the GI50 dose
# KAT7, sequence (O95251 whole entry): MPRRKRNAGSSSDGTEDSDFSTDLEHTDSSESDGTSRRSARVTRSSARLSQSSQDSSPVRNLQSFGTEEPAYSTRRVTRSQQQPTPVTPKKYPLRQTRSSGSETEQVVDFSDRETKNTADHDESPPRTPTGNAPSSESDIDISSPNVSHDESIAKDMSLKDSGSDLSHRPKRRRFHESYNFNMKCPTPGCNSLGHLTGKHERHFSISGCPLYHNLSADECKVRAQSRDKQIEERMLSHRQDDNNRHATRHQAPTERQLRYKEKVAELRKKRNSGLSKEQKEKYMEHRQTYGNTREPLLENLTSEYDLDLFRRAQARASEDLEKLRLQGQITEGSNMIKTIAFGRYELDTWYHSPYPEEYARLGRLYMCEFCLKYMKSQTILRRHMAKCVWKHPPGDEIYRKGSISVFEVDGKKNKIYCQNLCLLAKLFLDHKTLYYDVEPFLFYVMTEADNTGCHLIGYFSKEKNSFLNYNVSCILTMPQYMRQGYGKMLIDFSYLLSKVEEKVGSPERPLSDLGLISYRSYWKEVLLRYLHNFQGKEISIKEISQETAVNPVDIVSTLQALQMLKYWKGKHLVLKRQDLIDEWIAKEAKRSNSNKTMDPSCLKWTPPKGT
compound,measurement,setting,value
COc1cccc(OC)c1S(=O)(=O)Nc1noc2cc(Cn3cccn3)cc(OC)c12 [PF-9363],growth inhibition compared with CPI-1612,BT-549 cells,greater growth inhibition
same,reduction of H3K23Ac,"H3K23Ac (KAT6A/B); 0.1 μM, 24 h, MCF-7 cells",~ 80%
same,"Fold-change 0.1 v 30, H3_18_26 K23ac","H3K23Ac (KAT6A/B); KAT marker KAT6A/B, PF-9363 0.1 v 30",7.11
same,"Average ratio, H3_18_26 K23ac","H3K23Ac (KAT6A/B); KAT marker KAT6A/B, PF-9363 (0.1 mM)",0.0330
same,"Average ratio, H3_18_26 K23ac","H3K23Ac (KAT6A/B); KAT marker KAT6A/B, PF-9363 (30 mM)",0.0046
same,"Ratio, H3_18_26 K23ac","H3K23Ac (KAT6A/B); KAT marker KAT6A/B, dose 0.1",0.02851 and 0.03904 and 0.03134
same,"Ratio, H3_18_26 K23ac","H3K23Ac (KAT6A/B); KAT marker KAT6A/B, dose 1",0.02199 and 0.02064 and 0.0179
same,"Ratio, H3_18_26 K23ac","H3K23Ac (KAT6A/B); KAT marker KAT6A/B, dose 10",0.01047 and 0 and 0.009458
same,"Ratio, H3_18_26 K23ac","H3K23Ac (KAT6A/B); KAT marker KAT6A/B, dose 30",0 and 0.006901 and 0.007012
same,"Fold-change 0.1 v 30, H3_9_17 K9ac","H3K9Ac (KAT2A/B); KAT marker KAT2A/B, PF-9363 0.1 v 30",1.55
same,"Average ratio, H3_9_17 K9ac","H3K9Ac (KAT2A/B); KAT marker KAT2A/B, PF-9363 (30 μM)",0.0036
same,"Average ratio, H3_9_17 K9ac","H3K9Ac (KAT2A/B); KAT marker KAT2A/B, PF-9363 (0.1 mM)",0.0056
same,"Ratio, H3_9_17 K9ac","H3K9Ac (KAT2A/B); KAT marker KAT2A/B, dose 0.1",0.007813 and 0.000147 and 0.0089
same,"Ratio, H3_9_17 K9ac","H3K9Ac (KAT2A/B); KAT marker KAT2A/B, dose 1",0.005499 and 0.002205 and 0.005001
same,"Ratio, H3_9_17 K9ac","H3K9Ac (KAT2A/B); KAT marker KAT2A/B, dose 10",0.000496 and 0.002771 and 0.002815
same,"Ratio, H3_9_17 K9ac","H3K9Ac (KAT2A/B); KAT marker KAT2A/B, dose 30",0.004671 and 0.003182 and 0.003055
same,modulation of H3K9Ac,"H3K9Ac (KAT2A/B); MCF-7 cells, 24 h, any concentration (0.1-30 μM)",not found to modulate
same,co-competition of KAT7 JADE complex members,KAT7,"caused co-competition of JADE2, MEAF6, and ING4/5"
same,inhibition of KAT8 (H4K16Ac),H4K16Ac (KAT8),near complete inhibiton
